Patent US20110086877A1 (priority 2005, published 2011)
pKd: −log10 of the molar value. Several values for one entry are separate records, joined by “and”; a condition that tells them apart may be missing. Equal entries are not always repeated.

How the values were obtained:
anthrax lethal factor = anthrax lethal factor (Bacillus anthracis, UniProt P15917); format: biochemical
[1] = target: BoNT/A LC metalloprotease (Clostridium botulinum, UniProt P0DPI0); test: biochemical
BoNT/A LC [2] = target: T1, BoNT/A LC (Clostridium botulinum, UniProt P0DPI0); conditions: cited from earlier work
T1 sequence (P0DPI0 2-448 limits assumed): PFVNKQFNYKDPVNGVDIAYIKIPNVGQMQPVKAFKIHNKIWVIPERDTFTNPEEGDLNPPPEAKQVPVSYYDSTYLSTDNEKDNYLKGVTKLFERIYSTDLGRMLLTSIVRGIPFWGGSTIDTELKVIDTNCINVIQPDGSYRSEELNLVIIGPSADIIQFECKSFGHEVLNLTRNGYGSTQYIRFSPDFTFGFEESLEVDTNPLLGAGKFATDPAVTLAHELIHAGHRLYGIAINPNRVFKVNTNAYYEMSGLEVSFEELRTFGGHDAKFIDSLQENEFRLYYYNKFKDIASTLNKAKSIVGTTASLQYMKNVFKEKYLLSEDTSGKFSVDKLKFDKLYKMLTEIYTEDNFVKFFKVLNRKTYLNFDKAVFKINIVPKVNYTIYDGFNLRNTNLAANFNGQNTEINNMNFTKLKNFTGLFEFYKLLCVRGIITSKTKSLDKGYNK

BoNT/A LC [3] = target: T1, BoNT/A LC; test: biochemical; format: binding
BoNT/A holotoxin = BoNT/A holotoxin (Clostridium botulinum, UniProt P0DPI1); format: cell-based
Sequence of BoNT/A holotoxin (P0DPI1 2-448 limits assumed): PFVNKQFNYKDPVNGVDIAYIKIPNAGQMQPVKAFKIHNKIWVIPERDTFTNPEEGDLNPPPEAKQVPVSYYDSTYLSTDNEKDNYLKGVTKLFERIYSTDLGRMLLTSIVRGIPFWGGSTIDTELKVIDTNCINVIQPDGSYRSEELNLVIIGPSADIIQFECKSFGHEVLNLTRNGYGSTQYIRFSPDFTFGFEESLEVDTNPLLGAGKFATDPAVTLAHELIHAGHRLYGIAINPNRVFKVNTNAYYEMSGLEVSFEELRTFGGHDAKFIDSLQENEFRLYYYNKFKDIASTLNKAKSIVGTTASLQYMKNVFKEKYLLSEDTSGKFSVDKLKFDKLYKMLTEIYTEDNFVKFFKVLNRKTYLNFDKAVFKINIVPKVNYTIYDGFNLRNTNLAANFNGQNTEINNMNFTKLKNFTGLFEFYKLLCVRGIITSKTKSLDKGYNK

[4] = test system: chick spinal motor neurons

Sequence of BoNT/A LC metalloprotease (P0DPI0 2-448 limits assumed): as the sequence (P0DPI0 2-448 limits assumed) above
Sequence of anthrax lethal factor (P15917 34-809 limits assumed): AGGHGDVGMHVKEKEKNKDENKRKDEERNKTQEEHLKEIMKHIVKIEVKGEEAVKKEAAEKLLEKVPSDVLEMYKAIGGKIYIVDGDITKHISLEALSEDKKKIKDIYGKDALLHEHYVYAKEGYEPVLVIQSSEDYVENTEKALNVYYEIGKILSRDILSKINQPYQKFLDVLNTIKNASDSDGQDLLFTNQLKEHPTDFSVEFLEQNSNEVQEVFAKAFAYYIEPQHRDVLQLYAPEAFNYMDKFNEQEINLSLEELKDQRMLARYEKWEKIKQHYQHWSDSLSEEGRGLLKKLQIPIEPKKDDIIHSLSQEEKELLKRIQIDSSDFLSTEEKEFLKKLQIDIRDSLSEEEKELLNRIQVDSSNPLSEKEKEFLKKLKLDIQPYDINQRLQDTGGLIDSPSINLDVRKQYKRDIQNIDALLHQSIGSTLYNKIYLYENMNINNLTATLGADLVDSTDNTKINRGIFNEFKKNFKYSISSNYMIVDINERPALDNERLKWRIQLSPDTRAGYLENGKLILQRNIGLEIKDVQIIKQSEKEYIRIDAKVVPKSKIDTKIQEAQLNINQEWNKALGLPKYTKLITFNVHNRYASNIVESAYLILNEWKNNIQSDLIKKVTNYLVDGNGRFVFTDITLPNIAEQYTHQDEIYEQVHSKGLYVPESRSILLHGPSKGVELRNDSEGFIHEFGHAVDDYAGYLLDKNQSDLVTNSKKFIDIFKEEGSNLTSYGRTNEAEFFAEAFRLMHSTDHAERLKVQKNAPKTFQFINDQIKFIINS

Compound	inhibition of protease activity of anthrax lethal factor (anthrax lethal factor)	% Inhibition of BoNT/A LC metalloprotease activity [1] [%]	other results
N=C(N)c1ccc2cc(/C=C/c3cc4ccc(C(=N)N)cc4o3)[nH]c2c1 [NSC 294200]	inhibit the protease activity of anthrax lethal factor	48	
N=C(N)c1ccc(/C=C/c2cc3ccc(C(=N)N)cc3[nH]2)cc1 [NSC 317886]	inhibit the protease activity of anthrax lethal factor	43	
N=C(N)c1ccc2oc(/C=C/c3cc4cc(C(=N)N)ccc4s3)cc2c1 [NSC 266472]		57	
CRATKML			inhibitor potency in words (BoNT/A LC [2]): potent inhibitor
N=C(N)c1ccc2oc(/C=C/C=C/c3cc4cc(C(=N)N)ccc4o3)cc2c1 [NSC 300511]	inhibit the protease activity of anthrax lethal factor	37	
N=C(N)c1ccc(Oc2ccc(-c3cc4ccc(C(=N)N)cc4[nH]3)cc2)cc1 [NSC 240898]	inhibit the protease activity of anthrax lethal factor	61	ΔH (BoNT/A LC [3]): −3.04 and −3.04 ± 0.20 kcal mol^−1; ΔS (BoNT/A LC [3]): 14 and 14.0 cal mol^−1 K^−1; pKd (BoNT/A LC [3]; Kd): ~5.34 and 5.34; Ka (BoNT/A LC [3]; pH 7.4): 218000 ± 45000 M⁻¹; N (number of binding sites, stoichiometry) (BoNT/A LC [3]; pH 7.4): 0.83±0.04; inhibition of SNAP-25 cleavage (BoNT/A holotoxin): robust dose-dependent inhibition; morphological signs of damage (tubulin, actin, DNA staining) [4]: little or no morphological signs of damage; concentration tolerated by cells without substantial cytotoxic effects ([4]; chick): about 40 μM
c1cc2cc(-c3ccc(-c4cc5ccc(C6=NCCN6)cc5[nH]4)cc3)[nH]c2cc1C1=NCCN1 [NSC 317881]	inhibit the protease activity of anthrax lethal factor	45	
C(=C\c1cc2cc(C3=NCCN3)ccc2o1)/c1cc2cc(C3=NCCN3)ccc2o1 [NSC 278999]		53	
C(=C\c1cc2ccc(C3=NCCN3)cc2o1)/c1cc2ccc(C3=NCCN3)cc2o1 [NSC 294494]		45	
C[C@H](CS)C(=O)N1CCC[C@H]1C(=O)O [captopril]			inhibition of BoNT/A LC by known protease inhibitors (BoNT/A LC [2]): inhibited by mM concentrations
C(=C\c1cc2ccc(C3=NCCN3)cc2o1)/c1cc2cc(C3=NCCN3)ccc2[nH]1 [NSC 294204]	inhibit the protease activity of anthrax lethal factor	38	
C1=NC(c2ccc3cc(-c4c(-c5ccc(C6=NCCN6)cc5)[nH]c5cc(C6=NCCN6)ccc45)[nH]c3c2)NC1 (stereo not shown) [NSC 341911]	inhibit the protease activity of anthrax lethal factor	37	
CCN(CC)CCCNc1cc(C)nc2c1ccc1c2ccc2c(NCCCN(CC)CC)cc(C)nc21 [NSC 328398]			inhibition at 10 µM ([1]; at 10 μM): 45%
C(=C\c1cc2ccc(C3=NCCN3)cc2[nH]1)/c1ccc2cc(C3=NCCN3)[nH]c2c1 [NSC 341907]	inhibit the protease activity of anthrax lethal factor	60	
CCOC(=O)[C@H](CCc1ccccc1)N[C@@H](C)C(=O)N1CCC[C@H]1C(=O)O [enalapril]			inhibition of BoNT/A LC by known protease inhibitors (BoNT/A LC [2]): inhibited by mM concentrations
C(=C\c1cc2ccc(C3=NCCN3)cc2[nH]1)/c1cc2ccc(C3=NCCN3)cc2[nH]1 [NSC 317880]	inhibit the protease activity of anthrax lethal factor	35	
N=C(N)c1ccc2[nH]c(/C=C/c3cc4cc(C(=N)N)ccc4o3)cc2c1 [NSC 290107]	inhibit the protease activity of anthrax lethal factor	52	
N=C(N)N/N=C/c1ccc(-c2cc3ccc(/C=N/NC(=N)N)cc3s2)cc1 [NSC 341909]	inhibit the protease activity of anthrax lethal factor	68	concentration at which highly cytotoxic ([4]; chick): 1000 to 5000 nM
C(=C\c1cc2ccc(C3=NCCN3)cc2[nH]1)/c1ccc(Oc2ccc(C3=NCCN3)cc2)cc1 [NSC 330690]		53	
N=C(N)c1ccc2[nH]c(/C=C/c3cc4ccc(C(=N)N)cc4o3)cc2c1 [NSC 294203]	inhibit the protease activity of anthrax lethal factor	46	
C(=C\c1cc2cc(C3=NCCN3)ccc2s1)/c1ccc(C2=NCCN2)cc1 [NSC 317883]		41	
c1cc2cc(-c3cc4ccc(C5=NCCN5)cc4[nH]3)[nH]c2cc1C1=NCCN1 [NSC 330688]		43	
N=C(N)c1ccc(/C=C/c2cc3cc(C(=N)N)ccc3[nH]2)cc1 [NSC 317884]	inhibit the protease activity of anthrax lethal factor	47	
N=C(N)c1ccc2oc(/C=C/C=C/C=C/c3cc4cc(C(=N)N)ccc4o3)cc2c1 [NSC 308574]	inhibit the protease activity of anthrax lethal factor	63	concentration at which highly cytotoxic ([4]; chick): 1000 to 5000 nM
NCCCC[C@H](N[C@@H](CCc1ccccc1)C(=O)O)C(=O)N1CCC[C@H]1C(=O)O [lysinopril]			inhibition of BoNT/A LC by known protease inhibitors (BoNT/A LC [2]): inhibited by mM concentrations
C(=C\c1cc2cc(C3=NCCN3)ccc2o1)/c1cc2cc(C3=NCCN3)ccc2[nH]1 [NSC 290108]	inhibit the protease activity of anthrax lethal factor	51	
C(/C=C/c1cc2cc(C3=NCCN3)ccc2o1)=C\c1cc2cc(C3=NCCN3)ccc2o1 [NSC 308571]	inhibit the protease activity of anthrax lethal factor	52	
C(=C\c1ccc2[nH]c(C3=NCCN3)cc2c1)/c1ccc(Oc2ccc(C3=NCCN3)cc2)cc1 [NSC 352341]		40	
C(=C/c1cc2cc(C3=NCCN3)ccc2o1)/c1cc2cc(C3=NCCN3)ccc2o1 [NSC 607617]		36	
